For one experiment, the system named is Crohn's disease. Particulars: C. Yang et, Aliment Pharmacol Ther 2015; cited from earlier work.
Experiment [1] relates to DNBS-Induced Inflammatory Bowel Disease Models in Rats. As to the kind of experiment: Biological Example 2: DNBS-induced inflammatory bowel disease models in rats. The class given is in vivo, Wistar rats. On the procedure: 110 male Wistar rats were fasted for 40 hours. A 5% glucose injection (10 mL/Kg) was administered subcutaneously during fasting. 48 rats with normal conditions and moderate body weight were selected from the fasting rats. The animals were randomly divided into […] according to the body weight: normal control group, model control group, sulfasalazine group (300 mg/Kg), dexamethasone group (0.1 mg/Kg), the compound in Example 26 group (30 mg/kg) and the compound in Example 27 group (30 mg/kg), with 8 rats in each group. The animals were anesthetized with isoflurane. A specially made gavage device (made by a rat gavage device having the diameter of 2 mm, which was nested on a mouse gavage device having the diameter of 1 mm) was slowly inserted into the enteric cavity at 8 cm from the anus. The model control group, the compound in Example 26 group and the compound in Example 27 group were administered with 0.5 mL of 50 mg/mL DNBS in 30% ethanol solution. The normal control group was administered with 0.5 mL of 30% ethanol solution. The animals were inverted in anesthesia for 15 minutes after the gavage device was removed. The day when the model was prepared was the first day of the experiment. After 4 hours of DNBS induction, the corresponding drug or the corresponding volume of 1% CMC-Na was administered once per day. On the sixth day of the experiment, the animals were euthanized to observe the results of each index so as to score the colon adhesion degree, measure the length of colon and ulcer area, weigh colon and calculate the colon weight to length ratio.
The compound in Example 26 and Example 27, sulfasalazine and dexamethasone: Preparation Method: Suspended with 1% CMC-Na, and prepared when it was needed.
Levene's Test for homogeneity of data was performed with Spss. Where the data were homogeneous (P>0.05), one-way ANOVA LSD test was performed. Where the analysis of variance was significant (P≤0.05), Dunnett's multiple comparison (parameter method) was performed. Where the results of Levene's Test were significant (P≤0.05), Kruskal-Wallis nonparametric test was performed. Where the results of Kruskal-Wallis nonparametric test were significant (P≤0.05), Mann-Whitney U test was performed for pairwise comparison.

Experiment [2] shares this test system. As to the kind of experiment: Biological Example 1: DNBS-induced inflammatory bowel disease models in rats. The experiment is classed as in vivo, Wistar rats. On the procedure: Wistar rats, male, body weight of 100-120 g.
90 male Wistar rats were fasted for 40 hours. A 5% glucose injection was administered subcutaneously during fasting. 60 rats with normal conditions and moderate body weight were selected from the fasting rats. The animals were randomly divided into 6 groups according to the body weight: normal control group, model control group, sulfasalazine group (300 mg/Kg), and the compound in Example 27 groups consisting of 5, 15 and 30 mg/Kg dose groups. There were 10 rats in each group. The animals were anesthetized with ether. A specially made gavage device (made by a rat gavage device having the diameter of 2 mm, which was nested on a mouse gavage device having the diameter of 1 mm) was slowly inserted into the enteric cavity at 8 cm from the anus. The model control group, the sulfasalazine group and the compound in Example 27 groups were administered with 0.5 mL of 50 mg/mL DNBS in 30% ethanol solution. The normal control group was administered with 0.5 mL of 30% ethanol solution. The animals were inverted in anesthesia for 15 minutes after the gavage device was removed. The day when the model was prepared was the first day of the experiment. After 4 hours of DNBS induction, the corresponding drug or the corresponding volume of 1% CMC-Na was administered once per day. The body weights were recorded and the stool characteristics were scored. On the sixth day of the experiment colon tissues were taken from the animals to observe the results of each index.
The compound in Example 27 and sulfasalazine: Preparation Method: Suspended with 1% CMC-Na, and prepared when it was needed.
Animals were euthanized on the sixth day of the experiment to observe the results of each index. After the animals were sacrificed, colons were obtained. The adhesion degree of colon was observed and the length of the colon was measured. The ulcer area was calculated after removing the contents in the colon and the weight of the colon tissue was weighed. The colon tissue was longitudinally divided into two parts. One part of the colon tissue was fixed in 10% formalin solution for later use. The other part of the colon tissue was put into the liquid nitrogen to quickly frozen, and then was reserved at −80° C. for the detection of MPO.
Calculation method for ulcer area: length of ulcer point (cm)×width of ulcer point (cm).
The frozen tissue was ground into powder in liquid nitrogen. An appropriate amount of the powder was weighed and was added into 50 mM potassium phosphate solution (containing 0.5% cetyltrimethylammonium bromide) to give a 25 mg/mL solution. The resultant solution was homogenized by an electric homogenizer. 1 mL of suspension was centrifuged to give a supernatant. 7 μL of the supernatant was added into a 96-well plate and 200 μL of o-dianisidine mixture (containing 0.167 mg/mL o-dianisidine and 0.0006% H2O2 potassium phosphate buffer). OD values of the resultant solution at 0, 30, 60, and 90 s were detected at 450 nm of the microplate reader.
Test for homogeneity of variance was performed with Spss13.0. Where variance of data was homogeneous (P>0.05), one-way ANOVA LSD test was performed. Where the analysis of variance was significant (P<0.05), then Dunnett's multiple comparison (parameter method) or Kruskal-Wallis non-parametric test was performed. Where the results of Kruskal-Wallis non-parametric test were significant (P<0.05), the Mann-Whitney U test was performed for pairwise comparison.

Where [3] appears, read: 300 mg/Kg i.g. qd × 6, sixth day, Mean ± SD.

SMILES strings stand for the structures. Marks after values point to notes of the source that are not given here.

On to `O=C1CCC(N2C(=O)c3ccccc3C2=O)C(=O)N1` (stereo not shown) [thalidomide], for which, in the experiment with Crohn's disease, the “effectiveness in the treatment of Crohn's disease (in words)” value is given as “not effective”.

On to `O=C(O)c1cc(/N=N/c2ccc(S(=O)(=O)Nc3ccccn3)cc2)ccc1O` [Sulfasalazine, sulfasalazine, reference compound], for which, in experiment [1] (setting [3]), the “Adhesion Degree” value was determined as 0.8 ± 0.7 Points, the “Colon Length” value was 13.2 ± 2.5 cm, the “Colon Weight” value came out at 1776.1 ± 280.7 mg and the “Ulcer Area” value is listed as 1.6 ± 1.2# cm^2. Further, the “growth rate of the body weight (in words)” value in experiment [1] (fourth day of the experiment, compared with model control group, doses as in Table 7) is listed as “higher than that in the model control group”. For the same compound, in experiment [2] (setting [3]), the “Adhesion Degree” value came out at 0.2 ± 0.4 Point, the “Colon MPO Activity” value came to 26.0 ± 14.8 U/mg, the “Colon Weight” value is 1794.9 ± 242.3 mg and the “Colon weight to length ratio” value is on record as 140.6 ± 27.9 mg/cm. The “Ulcer Area” value in experiment [2] (setting [3]) was 0.7 ± 0.6 cm^2. The “reduction of the ulcer area” value in experiment [2] (300 mg/Kg, vs model control group) was determined as 60%.

For `Nc1cccc2c1CN(C1CCC(=O)NC1=O)C2=O` (stereo not shown) [lenalidomide], in the experiment with Crohn's disease, the “effectiveness in the treatment of Crohn's disease (in words)” value is recorded as “not effective”.
